Source: US11427548B2 (Arvinas Operations, Inc., priority 2015, dated 2022)
Like-named read-outs stand apart in the source and are kept apart here.

Target: T1, Androgen Receptor (Homo sapiens, UniProt P10275)
T1 construct: endogenous in cells; host or cells: VCaP cells
T1 sequence (P10275 1-920): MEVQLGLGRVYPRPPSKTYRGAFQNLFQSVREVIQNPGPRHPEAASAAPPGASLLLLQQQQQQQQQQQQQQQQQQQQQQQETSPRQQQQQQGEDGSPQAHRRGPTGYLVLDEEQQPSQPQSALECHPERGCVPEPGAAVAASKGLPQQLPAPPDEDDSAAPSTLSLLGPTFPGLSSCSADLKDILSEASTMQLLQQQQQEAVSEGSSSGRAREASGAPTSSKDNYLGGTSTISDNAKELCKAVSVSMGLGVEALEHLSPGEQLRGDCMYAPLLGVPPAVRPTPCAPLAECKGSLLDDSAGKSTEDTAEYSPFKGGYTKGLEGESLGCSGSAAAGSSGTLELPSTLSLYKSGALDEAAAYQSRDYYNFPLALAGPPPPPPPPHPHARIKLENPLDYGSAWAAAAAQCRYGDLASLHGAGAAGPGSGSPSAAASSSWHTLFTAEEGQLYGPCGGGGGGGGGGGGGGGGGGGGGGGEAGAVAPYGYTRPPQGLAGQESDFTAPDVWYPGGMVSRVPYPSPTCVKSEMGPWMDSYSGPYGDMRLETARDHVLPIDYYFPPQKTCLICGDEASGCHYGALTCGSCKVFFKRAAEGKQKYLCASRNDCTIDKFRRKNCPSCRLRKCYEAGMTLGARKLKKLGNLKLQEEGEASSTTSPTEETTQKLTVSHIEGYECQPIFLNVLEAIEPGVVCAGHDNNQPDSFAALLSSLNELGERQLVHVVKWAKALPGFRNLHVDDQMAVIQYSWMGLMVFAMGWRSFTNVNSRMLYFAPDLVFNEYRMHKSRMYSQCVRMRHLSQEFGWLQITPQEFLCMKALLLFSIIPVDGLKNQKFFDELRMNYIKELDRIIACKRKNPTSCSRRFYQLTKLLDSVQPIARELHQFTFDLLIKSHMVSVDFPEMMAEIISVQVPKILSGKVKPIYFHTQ
Experiment: Androgen Receptor ELISA assay (PathScan AR ELISA) in VCaP cells: AR degradation, Dmax and DC50
Assay type: cell-based
Outline: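 VCaP cells, 30,000/well, grown ≥3 days in phenol red-free RPMI with 5% charcoal-stripped FBS; compound added in 0.1% DMSO with 0.1 nM R1881, 7 half-log doses, 24 h. Lysate AR quantified by PathScan sandwich ELISA, HRP/TMB read at 450 nm, giving DC50 and Dmax.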

[1] = read-out: VCaP DC50; VCaP cells; Table 36
[2] = VCaP cells; Table 36; read-out: VCaP DC50
[3] = VCaP, VCaP cells; Table 36; read-out: VCaP Dmax (%)
[4] = VCaP, highest percentage of Androgen Receptor degradation observed, VCaP cells (Table 32); read-out: VCaP Dmax (%)
[5] = concentration that caused 50% Androgen Receptor degradation, VCaP cells (Table 32); read-out: VCaP DC50

## Cc1ncsc1-c1ccc(CNC(=O)[C@@H]2C[C@@H](O)CN2C(=O)[C@@H](C(C)C)n2cc(OCC#CC#CCOc3ccc(N4C(=S)N(c5ccc(C#N)c(C(F)(F)F)c5)C(=O)C4(C)C)cc3)cn2)cc1 (racemic) [Example 616, 1-(2-(4-((6-(4-(3-(4-cyano-3-(trifluoromethyl)phenyl)-5,5-dimethyl-4-oxo-2-thioxoimidazolidin-1-yl)phenoxy)hexa-2,4-diyn-1-yl)oxy)-1H-pyrazol-1-yl)-3-methylbutanoyl)-4-hydroxy-N-(4-(4-methylthiazol-5-yl)benzyl)pyrrolidine-2-carboxamide]
VCaP, read-out: VCaP Dmax (%)
  Dmax: < 25%
[1]
  DC50: > 501 nM

## Cc1ncsc1-c1ccc(C(C)NC(=O)[C@@H]2C[C@@H](O)CN2C(=O)[C@@H](N)[C@@H](C)OCCCN(C)CCc2ccc(C(=O)N[C@H]3C(C)(C)[C@H](Oc4ccc(C#N)c(Cl)c4)C3(C)C)cc2)cc1 (stereo partly drawn) [Example 730, (2S,4R)-1-(O-(3-((4-(((1r,3r)-3-(3-chloro-4-cyanophenoxy)-2,2,4,4-tetramethylcyclobutyl)carbamoyl)phenethyl)(meth-yl)amino)propyl)-L-threonyl)-4-hydroxy-N-((S)-1-(4-(4-methylthiazol-5-yl)phenyl)ethyl)pyrrolidine-2-carboxamide]
[2]
  DC50: > 501 nM
[3]
  Dmax: < 25%

## Cc1ncsc1-c1ccc([C@H](C)NC(=O)[C@@H]2C[C@@H](O)CN2C(=O)[C@@H](C(C)C)n2cc(-c3ccnc(N4CC[C@@H](Nc5ccc(C(=O)N[C@H]6C(C)(C)[C@H](Oc7ccc(C#N)c(Cl)c7)C6(C)C)cc5)C4)c3)cn2)cc1 [Example 597, (2S,4R)-1-((R)-2-(4-(2-((R)-3-((4-(((1r,3R)-3-(3-chloro-4-cyanophenoxy)-2,2,4,4-tetramethylcylcobutyl)carbamoyl)phenyl)amino)pyrrolidin-1-yl)pyridin-4-yl)-1H-pyrazol-1-yl)-3-methylbutanoyl)-4-hydroxy-N-((S)-1-(4-(4-methylthiazol-5-yl)phenyl)ethyl)pyrroli-dine-2-carboxamide]
[2]
  DC50: > 501 nM
[3]
  Dmax: < 25%

## Cc1ncsc1-c1ccc([C@H](C)NC(=O)[C@@H]2C[C@@H](O)CN2C(=O)[C@@H](NC(=O)CN2CCO[C@H](COCCCCCOc3ccc(N4C(=S)N(c5ccc(C#N)c(C(F)(F)F)c5)C(=O)C4(C)C)cc3)C2)C(C)(C)C)cc1 [Example 614, (2S,4R)-1-((S)-2-(2-((S)-2-(((5-(4-(3-(4-cyano-3-(trifluoromethyl)phenyl)-5,5-dimethyl-4-oxo-2-thioxoimidazolidin-1-yl)phenoxy)pentyl)oxy)methyl)morpholino)ace-tamido)-3,3-dimethylbutanoyl)-4-hydroxy-N-((S)-1-(4-(4-methylthiazol-5-yl)phenyl)ethyl)pyrrolidine-2-carboxamide]
VCaP, read-out: VCaP Dmax (%)
  Dmax: 26 to 50%
[1]
  DC50: > 501 nM

## Cc1ncsc1-c1ccc([C@H](CO)NC(=O)[C@@H]2C[C@@H](O)CN2C(=O)[C@@H](NC(=O)COCCN2[C@H](C)CN(c3ccc(C(=O)N[C@H]4C(C)(C)[C@H](Oc5ccc(C#N)c(Cl)c5)C4(C)C)cn3)C[C@@H]2C)C(C)(C)C)cc1 [Example 826, N-((1r,3R)-3-(3-chloro-4-cyanophenoxy)-2,2,4,4-tetramethylcyclobutyl)-6-((3S,5R)-4-(2-(2-(((S)-1-((2S,4R)-4-hydroxy-2-(((R)-2-hydroxy-1-(4-(4-methylthiazol-5-yl)phenyl)ethyl)carbamoyl)pyrrolidin-1-yl)-3,3-dimethyl-1-oxobutan-2-yl)amino)-2-oxoethoxy)ethyl)-3,5-dimethylpiperazin-1-yl)nicotinamide]
[2]
  DC50: < 50 nM
VCaP, read-out: VCaP Dmax (%), VCaP cells; Table 36
  Dmax: > 71%

## Cc1cc(N2C(=O)C(C)(C)N(c3ccc(-c4ccc(OCCCCOCC(=O)N[C@H](C(=O)N5C[C@H](O)C[C@H]5C(=O)NCc5ccc(-c6cnco6)cc5)C(C)(C)C)cc4)cc3)C2=S)ccc1C#N [Example 125, (2S,4R)-1-[(2S)-2-{2-[4-(4-{4-[3-(4-cyano-3-methylphenyl)-5,5-dimethyl-4-oxo-2-sulfanylideneimidazolidin-1-yl]phenyl}phenoxy)butoxy]acetamido}-3,3-dimethylbutanoyl]-4-hydroxy-N-{[4-(1,3-oxazol-5-yl)phenyl]methyl}pyrrolidine-2-carboxamide]
[4]
  Dmax: 51 to 70%
[5]
  DC50: < 50 nM

## Cc1ncsc1-c1ccc(CNC(=O)[C@@H]2C[C@@H](O)CN2C(=O)[C@@H](NC(=O)COCCN2CCN(c3ccc(C(=O)N[C@H]4C(C)(C)[C@H](Oc5ccc(C#N)c(Cl)c5)C4(C)C)cn3)CC2)C(C)(C)C)cc1 [Example 638]
[2]
  DC50: < 50 nM
[3]
  Dmax: > 71%

## Cc1ncsc1-c1ccc([C@H](C)NC(=O)C2C[C@@H](O)CN2C(=O)C(NC(=O)COCC(F)(F)C(F)(F)C(F)(F)COc2ccc(C(=O)N[C@H]3C(C)(C)[C@H](Oc4ccc(C#N)c(Cl)c4)C3(C)C)cc2)C(C)(C)C)cc1 (stereo partly drawn) [Example 688, (2S,4R)-1-((S)-2-(2-((5-(4-(((1r,3r)-3-(3-chloro-4-cyanophenoxy)-2,2,4,4-tetramethylcyclobutyl)carbamoyl)phenoxy)-2,2,3,3,4,4-hexafluoropentyl)oxy)acetamido)-3,3-diemthylbutanoyl)-4-hydroxy-N-((S)-1-(4-(4-methylthiazol-5-yl)phenyl)ethyl)pyrrolidine-2-carboxamide]
VCaP, read-out: VCaP Dmax (%)
  Dmax: > 71%
[1]
  DC50: < 50 nM

## Cc1ncsc1-c1ccc([C@H](C)NC(=O)[C@@H]2C[C@@H](O)CN2C(=O)C(NC(=O)CO[C@@H]2CCCC[C@H]2N2CCN(CCOc3ccc(C(=O)N[C@H]4C(C)(C)[C@H](Oc5ccc(C#N)c(Cl)c5)C4(C)C)cc3)CC2)C(C)(C)C)cc1 (stereo partly drawn) [Example 792, (2S,4R)-1-((S)-2-(2-(((1R,2R)-2-(4-(2-(4-(((1r,3r)-3-(3-chloro-4-cyanophenoxy)-2,2,4,4-tetramethylcyclobutyl)carbamoyl)phenoxy)ethyl)piperazin-1-yl)cyclohexyl)oxy)acetamido)-3,3-dimethylbutanoyl)-4-hydroxy-N-((S)-1-(4-(4-methylthiazol-5-yl)phenyl)ethyl)pyrrolidine-2-carboxamide]
[2]
  DC50: > 501 nM
[3]
  Dmax: 26 to 50%

## Cc1ncsc1-c1ccc([C@H](C)NC(=O)[C@@H]2C[C@@H](O)CN2C(=O)[C@@H](NC(=O)COCC#CCOc2ccc(C(=O)N[C@H]3C(C)(C)[C@H](Oc4ccc(C#N)c(Cl)c4)C3(C)C)cc2)C(C)(C)C)cc1 [Example 388]
VCaP cells; Table 34; read-out: VCaP DC50
  DC50: < 50 nM
VCaP, VCaP cells; Table 34; read-out: VCaP Dmax (%)
  Dmax: > 71%

## Cc1ncsc1-c1ccc(CNC(=O)[C@@H]2C[C@@H](O)CN2C(=O)[C@@H](NC(=O)COCCCCOc2ccc(-c3ccc(N4C(=S)N(c5ccc(C#N)c(C(F)(F)F)c5)C(=O)C4(C)C)cc3)c(F)c2)C(C)(C)C)cc1 [Example 149, (2S,4R)-1-[(2S)-2-(2-{4-[4-(4-{3-[4-cyano-3-(trifluoromethyl)phenyl]-5,5-dimethyl-4-oxo-2-sulfanylideneimidazolidin-1-yl}phenyl)-3-fluorophenoxy]butoxy}acetamido)-3,3-dimethylbutanoyl]-4-hydroxy-N-{[4-(4-methyl-1,3-thiazol-5-yl)phenyl]methyl}pyrrolidine-2-carboxamide]
VCaP, read-out: VCaP Dmax (%)
  Dmax: > 71%
read-out: VCaP DC50; concentration that caused 50% Androgen Receptor degradation, VCaP cells (Table 32)
  DC50: < 50 nM

## Cc1ncsc1-c1ccc(CNC(=O)[C@@H]2C[C@@H](O)CN2C(=O)[C@@H](NC(=O)COC[C@H]2C[C@H](Oc3ccc(C(=O)N[C@H]4C(C)(C)[C@H](Oc5ccc(C#N)c(Cl)c5)C4(C)C)cc3)C2)C(C)(C)C)cc1 [Example 564]
VCaP cells; Table 35; read-out: VCaP DC50
  DC50: < 50 nM
VCaP, VCaP cells; Table 35; read-out: VCaP Dmax (%)
  Dmax: > 71%

## Cc1ncoc1-c1ccc(CNC(=O)[C@@H]2C[C@@H](O)CN2C(=O)[C@@H](NC(=O)COCc2ccc(Oc3ccc(C(=O)N[C@H]4C(C)(C)[C@H](Oc5ccc(C#N)c(Cl)c5)C4(C)C)cc3)cc2)C(C)(C)C)cc1 [Example 184, (2S,4R)-1-[(2S)-3,3-dimethyl-2-(2-{[4-(4-{[(1r,3r)-3-(3-chloro-4-cyanophenoxy)-2,2,4,4-tetramethylcyclobutyl]carbamoyl}phenoxy)phenyl]methoxy}acetamido)butanoyl]-4-hydroxy-N-{[4-(4-methyl-1,3-oxazol-5-yl)phenyl]methyl}pyrrolidine-2-carboxamide]
[4]
  Dmax: > 71%
[5]
  DC50: < 50 nM
